Measurements taken from the supplement of paper PMC10307832.

Assays:
Assay in all cases: relative viability (nuclei count vs DMSO), 5 days (fraction); higher = more cells survive
VX-11e + Palbociclib = compound: CC1=CN=C(N=C1C2=CNC(=C2)C(=O)N[C@H](CO)C3=CC(=CC=C3)Cl)NC4=C(C=C(C=C4)F)Cl [VX-11e] + CC(=O)c1c(C)c2cnc(Nc3ccc(N4CCNCC4)cn3)nc2n(C2CCCC2)c1=O [Palbociclib] (partner 0.5 µM)
In short: (§1)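 Relative viability was taken as the ratio of nuclei in treated wells to nuclei in vehicle wells. Lung cancer cell lines in 1536-well plates received compounds by pin tool one day after seeding, either one drug alone or a fixed anchor-drug dose plus five library-drug doses (not always all listed) in √10 steps. Nuclei were counted on 4× images after 5 days of treatment, and values are medians of duplicate plates.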

VX-11e + Bortezomib = compound: CC1=CN=C(N=C1C2=CNC(=C2)C(=O)N[C@H](CO)C3=CC(=CC=C3)Cl)NC4=C(C=C(C=C4)F)Cl [VX-11e] + CC(C)C[C@H](NC(=O)[C@H](Cc1ccccc1)NC(=O)c1cnccn1)B(O)O [Bortezomib] (partner 0.002 µM)
In short: as §1

VX-11e + Foretinib = compound: CC1=CN=C(N=C1C2=CNC(=C2)C(=O)N[C@H](CO)C3=CC(=CC=C3)Cl)NC4=C(C=C(C=C4)F)Cl [VX-11e] + COc1cc2c(Oc3ccc(NC(=O)C4(C(=O)Nc5ccc(F)cc5)CC4)cc3F)ccnc2cc1OCCCN1CCOCC1 [Foretinib] (partner 0.25 µM)
In short: as §1

VX-11e + Pictilisib = compound: CC1=CN=C(N=C1C2=CNC(=C2)C(=O)N[C@H](CO)C3=CC(=CC=C3)Cl)NC4=C(C=C(C=C4)F)Cl [VX-11e] + CS(=O)(=O)N1CCN(Cc2cc3nc(-c4cccc5[nH]ncc45)nc(N4CCOCC4)c3s2)CC1 [Pictilisib] (partner 1 µM)
In short: as §1

| Cell Line | relative viability (VX-11e + Palbociclib; first compound 0.04 µM) | relative viability (VX-11e + Palbociclib; first compound 0.1265 µM) | relative viability (VX-11e + Palbociclib; first compound 0.4 µM) | relative viability (VX-11e + Palbociclib; first compound 1.265 µM) | relative viability (VX-11e + Palbociclib; first compound 4 µM) | relative viability (VX-11e + Bortezomib; first compound 0.04 µM) | relative viability (VX-11e + Bortezomib; first compound 0.1265 µM) | relative viability (VX-11e + Bortezomib; first compound 0.4 µM) | relative viability (VX-11e + Bortezomib; first compound 1.265 µM) | relative viability (VX-11e + Bortezomib; first compound 4 µM) | relative viability (VX-11e + Foretinib; first compound 0.1265 µM) | relative viability (VX-11e + Foretinib; first compound 0.4 µM) | relative viability (VX-11e + Foretinib; first compound 1.265 µM) | relative viability (VX-11e + Foretinib; first compound 4 µM) | relative viability (VX-11e + Pictilisib; first compound 0.04 µM) | relative viability (VX-11e + Pictilisib; first compound 0.1265 µM) | relative viability (VX-11e + Pictilisib; first compound 0.4 µM) | relative viability (VX-11e + Pictilisib; first compound 1.265 µM) | relative viability (VX-11e + Pictilisib; first compound 4 µM) | relative viability (VX-11e + Foretinib; first compound 0.04 µM) |
| --- | --- | --- | --- | --- | --- | --- | --- | --- | --- | --- | --- | --- | --- | --- | --- | --- | --- | --- | --- | --- |
| HCC-78 | 0.481 | 0.359 | 0.466 | 0.501 | 0.431 | 0.565 | 0.491 | 0.505 | 0.227 | 0.441 | 0.54 | 0.542 | 0.514 | 0.496 | 0.23 | 0.185 | 0.31 | 0.189 | 0.224 |  |
| HCC-366 | 0.385 | 0.311 |  | 0.314 | 0.163 | 0.959 | 0.895 |  | 0.864 | 0.759 | 0.876 |  | 0.851 | 0.701 | 0.159 | 0.101 | 0.15 | 0.12 | 0.081 | 1.01 |
| HCC-827 | 0.533 | 0.46 | 0.461 | 0.541 | 0.301 | 1.11 | 1.1 | 1.09 | 1.2 | 1.02 | 1.09 | 1.04 | 1.13 | 0.739 | 1.03 | 0.883 | 1.06 | 1.19 | 0.813 | 1.07 |
| HOP-62 | 0.505 | 0.451 | 0.464 | 0.434 | 0.348 | 0.688 | 0.963 | 0.553 | 0.214 | 0.515 | 1.03 | 1.16 | 0.859 | 0.589 | 0.42 | 0.51 | 0.152 | 0.125 | 0.116 | 1.22 |
| IA-LM |  |  |  |  |  | 0.959 | 0.941 | 0.927 | 0.306 | 0.105 | 1.17 | 1.22 | 0.486 | 0.0917 | 0.327 | 0.263 | 0.199 | 0.0879 | 0.0695 | 1.09 |
| LC-2-ad | 0.48 | 0.42 | 0.54 | 0.46 | 0.409 | 1.13 | 0.962 | 0.894 | 0.403 | 0.841 | 0.822 | 0.983 | 0.747 | 0.673 | 0.398 | 0.432 | 0.349 | 0.247 | 0.163 | 0.883 |
| LK-2 | 0.557 | 0.594 | 0.566 | 0.399 | 0.45 |  |  |  |  |  | 1.3 | 1.18 | 0.643 | 0.817 |  | 0.45 | 0.562 |  | 0.337 | 1.1 |
| NCI-H358 | 0.122 | 0.139 | 0.0851 | 0.148 | 0.118 |  |  |  |  |  | 0.541 | 0.347 | 0.434 | 0.147 | 0.3 | 0.313 |  | 0.372 | 0.254 | 0.354 |
| NCI-H522 | 0.782 | 0.924 | 0.861 | 0.717 | 0.733 |  |  |  |  |  |  |  |  |  |  |  |  |  |  |  |
| NCI-H596 |  |  |  |  |  | 0.953 | 1 | 0.989 | 0.645 | 0.715 | 0.952 | 0.775 | 0.79 | 0.506 | 0.377 | 0.429 | 0.378 | 0.431 | 0.319 | 0.854 |
| NCI-H1299 |  |  |  |  |  | 0.987 | 0.978 | 0.978 | 1.05 | 0.556 | 1.08 | 1.11 | 1.23 | 0.52 | 0.851 | 0.821 | 0.681 | 0.262 | 0.119 | 1.2 |
| NCI-H1395 | 0.593 | 0.612 |  | 0.605 | 0.483 |  |  |  |  |  | 0.898 | 0.931 | 1 | 0.666 | 0.682 | 0.551 | 0.501 | 0.59 | 0.435 | 1.05 |
| NCI-H1563 |  |  |  |  |  | 0.884 | 0.734 | 0.637 | 0.739 | 0.747 | 0.832 | 0.862 | 0.922 | 0.763 | 0.662 | 0.538 | 0.559 | 0.656 | 0.625 | 1.02 |
| NCI-H1648 |  | 0.305 | 0.301 | 0.331 | 0.314 |  |  |  |  |  |  |  |  |  |  |  |  |  |  |  |
| NCI-H1703 |  |  |  |  |  | 0.473 | 0.414 | 0.258 | 0.35 | 0.21 | 0.33 |  | 0.317 | 0.28 |  | 0.257 | 0.234 | 0.268 | 0.258 | 0.383 |
| NCI-H1792 | 0.684 | 0.586 | 0.645 | 0.541 | 0.319 | 1.01 | 0.912 | 0.94 | 0.876 | 0.686 |  |  |  |  | 0.299 | 0.2 | 0.319 | 0.27 | 0.0521 |  |
| NCI-H1793 |  | 0.255 |  | 0.28 | 0.232 |  |  |  |  |  | 0.603 |  | 0.748 | 0.411 |  | 0.329 |  | 0.273 | 0.232 | 0.589 |
| NCI-H1944 | 0.323 | 0.343 | 0.338 | 0.264 | 0.205 |  |  |  |  |  | 0.851 |  | 0.806 | 0.505 | 0.301 | 0.308 | 0.306 | 0.309 | 0.281 | 0.896 |
| NCI-H2170 | 0.354 | 0.386 | 0.381 | 0.339 | 0.424 |  |  |  |  |  | 1.13 | 0.906 | 0.953 | 0.812 | 0.244 | 0.265 | 0.19 | 0.217 | 0.237 | 0.995 |
| NCI-H2342 |  | 0.542 | 0.521 | 0.568 | 0.515 |  |  |  |  |  | 1.1 | 0.98 | 1.07 | 0.893 |  |  |  |  |  | 1.15 |
| SK-MES-1 | 0.326 | 0.329 | 0.355 | 0.327 | 0.244 |  |  |  |  |  | 0.881 | 0.857 | 1.02 | 0.419 | 0.337 | 0.31 | 0.316 | 0.249 | 0.168 | 1.03 |
| SW 900 | 0.421 | 0.422 |  | 0.518 | 0.482 |  |  |  |  |  | 0.943 | 0.969 | 0.794 | 0.519 |  |  |  |  |  | 0.851 |
